Test results from ChEMBL document CHEMBL4024741, “A minimalistic tetrapeptide amphiphile scaffold for transmembrane pores with a preference for sodium” (Bioorg Med Chem Lett, 2017).
The source made the active and inactive calls. The calls are words filed in the database; no cut-off is given here.

Assays:
[1] = Binding affinity to potassium ion in 1,2-diphytanoyl-sn-glycero-3-phosphocholine based bilayer membrane assessed as reversal of membrane potential at 0.1 mg/ml in presence of KCl loaded cis membrane
[2] = Binding affinity to potassium ion in 1,2-diphytanoyl-sn-glycero-3-phosphocholine based bilayer membrane assessed as increase in membrane current at 0.1 mg/ml in presence of KCl loaded cis membrane
[3] = Binding affinity to sodium ion in HPTS dye encapsulated EPYC/cholesterol vesicles assessed as increase in internal pH at 20 uM after 2 mins in presence of NaOH loaded external vesicles by fluorescence spectroscopic analysis
[4] = Effect on membrane integrity in EYPC/cholesterol vesicles at 40 uM by dynamic light scattering method; assay type: ADME
[5] = Binding affinity to sodium ion in HPTS dye encapsulated EPYC/cholesterol vesicles assessed as increase in internal pH at 5 mol% of lipid after 2 mins in presence of NaOH loaded external vesicles by fluorescence spectroscopic analysis (reference value: 5.6 +/- 1.2 10^-3/s)
[6] = Binding affinity to potassium ion in HPTS dye encapsulated EPYC/cholesterol vesicles assessed as increase in internal pH at 5 mol% of lipid after 2 mins in presence of KOH loaded external vesicles by fluorescence spectroscopic analysis (reference value: 5.6 +/- 1.2 10^-3/s)
[7] = Binding affinity to lithium ion in HPTS dye encapsulated EPYC/cholesterol vesicles assessed as increase in internal pH at 5 mol% of lipid after 2 mins in presence of LiOH loaded external vesicles by fluorescence spectroscopic analysis (reference value: 5.6 +/- 1.2 10^-3/s)
[8] = Binding affinity to sodium ion in lucigenin/NaCl encapsulated EPYC/cholesterol vesicle at 10 mol% of lipid by fluorescence spectroscopic method
[9] = Binding affinity to sodium ion in lucigenin/NaCl encapsulated EPYC/cholesterol vesicle by fluorescence spectroscopic method

| Activity [1] [mV] | Activity [2] [pA] | Activity [3] | K [5] [×10⁻³ /s] | K [6] [×10⁻³ /s] | K [7] [×10⁻³ /s] | K [8] [×10⁻³ /s] | EC50 [9] [mol%] | SMILES | Activity [4] |
| --- | --- | --- | --- | --- | --- | --- | --- | --- | --- |
| -14.9 | 40 | Active |  |  |  |  |  | CCCCCCCCCCCCCC(=O)N[C@@H](C)C(=O)Nc1cccc(C(=O)N[C@@H](C)C(=O)N[C@H](C)C(=O)OCCOCCOCC)n1 | Non-Toxic |
|  |  |  | 12.4 | 15.3 | 14.3 |  |  | CCCCCCCCCCCCCC(=O)N[C@@H](C)C(=O)N[C@H](C)C(=O)N[C@@H](C)C(=O)Nc1cccc(C(=O)OC)n1 | Non-Toxic |
| -10.8 | 30 |  | 28.9 | 15.8 | 17.5 | 9.7 | 0.94 | CCCCCCCCCCCCCC(=O)N[C@@H](C)C(=O)N[C@H](C)C(=O)N[C@@H](C)C(=O)Nc1cccc(C(=O)OCCOCCOCC)n1 | Non-Toxic |
